Like-named read-outs stand apart in the source and are kept apart here.
Tests used:
Assay type in all cases: in vivo
[1] = system: Beet Armyworm (Spodoptera exigua, LAPHEG); assay: Bioassay on Beet Armyworm (BAW), 128-well diet tray assay
Summary of the method: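 Artificial diet surface-treated with 50 μg/cm^2 test molecule in 90:10 acetone-water, dried, then infested with one to five second instar larvae per well. Held covered and vented at 25° C., 14:10 light-dark for five to seven days; percent mortality recorded per well and averaged over eight wells.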

[2] = system: Cabbage Looper (Trichoplusia ni, TRIPNI); assay: Bioassay on Cabbage Looper (CL), 128-well diet tray assay; conditions: Trichoplusia ni
Summary of the method: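 Second-instar larvae, one to five per well, placed on artificial diet treated with 50 μg/cm^2 test molecule in 90:10 acetone-water, dried before infestation. Held 5–7 days at 25° C, 14:10 light-dark; percent mortality averaged over eight wells.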

[3] = system: Yellow Fever Mosquito (Aedes aegypti, AEDSAE); assay: Bioassay on Yellow Fever Mosquito (YFM), 96-well plate larval assay; conditions: for YFM rating: Yellow Fever Mosquito, 96-well plate larval assay; for YFM (Biological Results, rating): Species YFM (Yellow Fever Mosquito)
Summary of the method: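 Aedes aegypti larvae (about 1 day old) in liver-powder water were added to plates dispensed from DMSO master plates (4000 ppm stock) diluted with 90:10 water/acetone; six replicate plates per master. Lidded plates were held at room temperature for 3 days, then each well was scored for mortality.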

[4] = Beet Armyworm, 128-well diet tray assay, read-out: BAW rating
[5] = Cabbage Looper, 128-well diet tray assay, read-out: CL rating
[6] = Species BAW (Beet Armyworm), read-out: BAW (Biological Results, rating)
[7] = Species CL (Cabbage Looper), read-out: CL (Biological Results, rating)

## CN1CCc2cc(NC(=O)c3cc(NC(=O)[C@H]4[C@H](c5cc(Cl)cc(Cl)c5)C4(Cl)Cl)ccc3Cl)ccc21 (relative stereo) [F473, 2-Chloro-5-(trans)-(2,2-dichloro-3-(3,5-dichlorophenyl)cyclopropane-1-carboxamido)-N-(1-methylindolin-5-yl)benzamide]
[1]; [4]
  pest or weed control at 50 µg/cm2: 50 to 100%
[2]; [5]
  pest or weed control at 50 µg/cm2: 50 to 100%
[3]
  YFM rating: A (80-100)

## O=C(Nc1ccc(F)cc1F)c1cc(NC(=O)C2C(c3cc(Cl)cc(Cl)c3)[C@@H]2Cl)ccc1Cl (stereo partly drawn) [F214, 2-Chloro-5-((2S)-2-chloro-3-(3,5-dichlorophenyl)cyclopropane-1-carboxamido)-N-(2,4-difluorophenyl)benzamide]
[1]; [6]
  pest or weed control at 50 µg/cm2: 50 to 100%
[2]; [7]
  pest or weed control at 50 µg/cm2: 50 to 100%
[3]
  YFM (Biological Results, rating): B (More than 0-Less than 80)

## Cc1ccc(NC(=O)c2cc(NC(=O)[C@H]3[C@H](c4cc(Cl)cc(Cl)c4)C3(Cl)Cl)ccc2Cl)cc1N (relative stereo) [F205, trans-N-(3-Amino-4-methylphenyl)-2-chloro-5-(2,2-dichloro-3-(3,5-dichlorophenyl)cyclopropane-1-carboxamido)benzamide]
[1]; [6]
  pest or weed control at 50 µg/cm2: 50 to 100%
[2]; [7]
  pest or weed control at 50 µg/cm2: 50 to 100%
[3]
  YFM (Biological Results, rating): B (More than 0-Less than 80)

## CN(C(=O)c1cc(NC(=O)[C@H]2[C@H](c3cc(Cl)cc(Cl)c3)C2(Cl)Cl)ccc1Cl)c1ccc(F)cc1C#N (relative stereo) [F243, trans-2-Chloro-N-(2-cyano-4-fluorophenyl)-5-(2,2-dichloro-3-(3,5-dichlorophenyl)cyclopropane-1-carboxamido)-N-methylbenzamide]
[1]; [6]
  pest or weed control at 50 µg/cm2: 50 to 100%
[2]; [7]
  pest or weed control at 50 µg/cm2: 50 to 100%
[3]
  YFM (Biological Results, rating): A (80-100)

## C=Cc1ccc([C@H]2[C@H](C(=O)Nc3ccc(Cl)c(C(=O)Nc4ccc(F)cc4F)c3)C2(Cl)Cl)cc1Cl (relative stereo) [F319, 2-Chloro-5-(trans-2,2-dichloro-3-(3-chloro-4-vinylphenyl)cyclopropane-1-carboxamido)-N-(2,4-difluorophenyl)benzamide]
[1]; [6]
  pest or weed control at 50 µg/cm2: 50 to 100%
[2]; [7]
  pest or weed control at 50 µg/cm2: 50 to 100%
[3]
  YFM (Biological Results, rating): A (80-100)

## CN(C(=O)c1cc(NC(=O)[C@H]2[C@H](c3cccc(C(F)F)c3)C2(Cl)Cl)ccc1Cl)c1ccc(F)cc1 (relative stereo) [F598, 2-Chloro-5-(trans-2,2-dichloro-3-(3-(difluoromethyl)phenyl)cyclopropane-1-carboxamido)-N-(4-fluorophenyl)-N-methylbenzamide]
[1]; [4]
  pest or weed control at 50 µg/cm2: 50 to 100%
[2]; [5]
  pest or weed control at 50 µg/cm2: 50 to 100%
[3]
  YFM rating: A (80-100)

## Cc1cc(N2C(=O)C=CC2=O)ccc1NC(=O)c1cc(NC(=O)[C@H]2[C@H](c3cc(Cl)cc(Cl)c3)C2(Cl)Cl)ccc1Cl (relative stereo) [F480, 2-chloro-5-(trans-2,2-dichloro-3-(3,5-dichlorophenyl)cyclopropane-1-carboxamido)-N-(4-(2,5-dioxo-2,5-dihydro-1H-pyrrol-1-yl)-2-methylphenyl)benzamide]
[1]; [4]
  pest or weed control at 50 µg/cm2: 50 to 100%
[2]; [5]
  pest or weed control at 50 µg/cm2: 50 to 100%
[3]
  YFM rating: A (80-100)

## O=C(Nc1ccc(Br)c(F)c1)c1cc(NC(=O)C2C(c3cc(Cl)cc(Cl)c3)C2(Cl)Cl)ccc1Cl (stereo not drawn) [PF115, N-(4-Bromo-3-fluorophenyl)-2-chloro-5-(trans)-2,2-dichloro-3-(3,5-dichlorophenyl)cyclopropane-1-carboxamido)benzamide]
[1]; [4]
  pest or weed control at 50 µg/cm2: 50 to 100%
[2]; [5]
  pest or weed control at 50 µg/cm2: 50 to 100%
[3]
  YFM rating: A (80-100)

## COc1c(F)cc(C2C(C(=O)Nc3ccc(Cl)c(C(=O)Nc4ccc(F)cc4F)c3)C2(Cl)Cl)cc1F (stereo not drawn) [F537, 2-Chloro-5-trans-(2,2-dichloro-3-(3,5-difluoro-4-methoxyphenyl)cyclopropane-1-carboxamido)-N-(2,4-difluorophenyl)benzamide]
[1]; [4]
  pest or weed control at 50 µg/cm2: 50 to 100%
[2]; [5]
  pest or weed control at 50 µg/cm2: 50 to 100%
[3]
  YFM rating: A (80-100)

## O=C(Nc1ccc2scnc2c1)c1cc(NC(=O)[C@H]2[C@H](c3cc(Cl)cc(Cl)c3)C2(Cl)Cl)ccc1Cl (relative stereo) [F482, trans-N-(Benzo[d]thiazol-5-yl)-2-chloro-5-(2,2-dichloro-3-(3,5-dichlorophenyl)cyclopropane-1-carboxamido)benzamide]
[1]; [4]
  pest or weed control at 50 µg/cm2: 50 to 100%
[2]; [5]
  pest or weed control at 50 µg/cm2: 50 to 100%
[3]
  YFM rating: A (80-100)

## C=Cc1ccc(NC(=O)c2cc(NC(=O)[C@H]3[C@H](c4cc(Cl)cc(Cl)c4)C3(Cl)Cl)ccc2Cl)nc1F (relative stereo) [F397, 2-Chloro-5-(trans-2,2-dichloro-3-(3,5-dichlorophenyl)cyclopropane-1-carboxamido)-N-(6-fluoro-5-vinylpyridin-2-yl)benzamide]
[1]; [4]
  pest or weed control at 50 µg/cm2: 50 to 100%
[2]; [5]
  pest or weed control at 50 µg/cm2: 50 to 100%
[3]
  YFM rating: A (80-100)

## Cc1cc(NC(=O)OC(C)(C)C)ccc1NC(=O)c1cccc(NC(=O)[C@H]2[C@H](c3cc(Cl)c(Cl)c(Cl)c3)C2(Cl)Cl)c1 (relative stereo) [F262, trans-tert-Butyl (4-(3-(2,2-dichloro-3-(3,4,5-trichlorophenyl)cyclopropane-1-carboxamido)benzamido)-3-methylphenyl)carbamate]
[1]; [6]
  pest or weed control at 50 µg/cm2: 50 to 100%
[2]; [7]
  pest or weed control at 50 µg/cm2: 50 to 100%
[3]
  YFM (Biological Results, rating): B (More than 0-Less than 80)

## Nc1cc(F)cc(F)c1NC(=O)c1cc(NC(=O)[C@H]2[C@H](c3ccc(F)c(Cl)c3)C2(Cl)Cl)ccc1Cl [F409, N-(2-Amino-4,6-difluorophenyl)-2-chloro-5-((1R,3R)-2,2-dichloro-3-(3-chloro-4-fluorophenyl)cyclopropane-1-carboxamido)benzamide]
[1]; [4]
  pest or weed control at 50 µg/cm2: 50 to 100%
[2]; [5]
  pest or weed control at 50 µg/cm2: 50 to 100%
[3]
  YFM rating: A (80-100)

## O=C(Nc1ccc(F)cc1F)c1cc(NC(=O)[C@H]2[C@H](c3ccc(F)c(Cl)c3)C2(Cl)Cl)ccc1Cl (relative stereo) [PF6, trans-2-Chloro-5-(2,2-dichloro-3-(3-chloro-4-fluorophenyl)cyclopropane-1-carboxamido)-N-(2,4-difluorophenyl)benzamide]
[1]; [4]
  pest or weed control at 50 µg/cm2: 50 to 100%
[2]; [5]
  pest or weed control at 50 µg/cm2: 50 to 100%
[3]
  YFM rating: A (80-100)

## Cc1cc(NC(=O)OC(C)(C)C)ccc1NC(=O)c1cc(NC(=O)[C@H]2[C@H](c3cc(Cl)cc(Cl)c3)C2(Cl)Cl)ccc1Cl [F275, tert-Butyl (4-(2-chloro-5-((1R,3R)-2,2-dichloro-3-(3,5-dichlorophenyl)cyclopropane-1-carboxamido)benzamido)-3-methylphenyl)carbamate]
[1]; [6]
  pest or weed control at 50 µg/cm2: 50 to 100%
[2]; [7]
  pest or weed control at 50 µg/cm2: 50 to 100%
[3]
  YFM (Biological Results, rating): A (80-100)

## C=C(F)c1ccc([C@H]2[C@H](C(=O)Nc3ccc(Cl)c(C(=O)Nc4ccc(F)cc4F)c3)C2(Cl)Cl)cc1Cl (relative stereo) [F383, 2-Chloro-5-(trans-2,2-dichloro-3-(3-chloro-4-(1-fluorovinyl)phenyl)cyclopropane-1-carboxamido)-N-(2,4-difluorophenyl)benzamide]
[1]; [4]
  pest or weed control at 50 µg/cm2: 50 to 100%
[2]; [5]
  pest or weed control at 50 µg/cm2: 50 to 100%
[3]
  YFM rating: A (80-100)

## N#Cc1c(Cl)cccc1NC(=O)c1cc(NC(=O)[C@H]2[C@H](c3cc(Cl)cc(Cl)c3)C2(Cl)Cl)ccc1Cl (relative stereo) [F302, 2-Chloro-N-(3-chloro-2-cyanophenyl)-5-(trans-2,2-dichloro-3-(3,5-dichlorophenyl)cyclopropane-1-carboxamido)benzamide]
[1]; [6]
  pest or weed control at 50 µg/cm2: 50 to 100%
[2]; [7]
  pest or weed control at 50 µg/cm2: 50 to 100%
[3]
  YFM (Biological Results, rating): A (80-100)

## O=C(Nc1ccc(F)cc1F)c1cc(NC(=O)[C@H]2[C@H](c3cc(Cl)cc(Cl)c3)C2(Cl)Cl)ccc1Cl [F185, 2-Chloro-5-((1R,3R)-2,2-dichloro-3-(3,5-dichlorophenyl)cyclopropane-1-carboxamido)-N-(2,4-difluorophenyl)benzamide]
[1]; [6]
  pest or weed control at 50 µg/cm2: 50 to 100%
[2]; [7]
  pest or weed control at 50 µg/cm2: 50 to 100%
[3]
  YFM (Biological Results, rating): B (More than 0-Less than 80)

## Cc1cc(NC(=O)c2cc(NC(=O)[C@H]3[C@H](c4cc(Cl)cc(Cl)c4)C3(Cl)Cl)ccc2Cl)cnc1F (relative stereo) [F396, 2-Chloro-5-(trans-2,2-dichloro-3-(3,5-dichlorophenyl)cyclopropane-1-carboxamido)-N-(6-fluoro-5-methylpyridin-3-yl)benzamide]
[1]; [4]
  pest or weed control at 50 µg/cm2: 50 to 100%
[2]; [5]
  pest or weed control at 50 µg/cm2: 50 to 100%
[3]
  YFM rating: A (80-100)

## O=C(Nc1c(F)cccc1F)c1cc(NC(=O)[C@H]2[C@H](c3ccc(C(F)(F)F)cc3)C2(Cl)Cl)ccc1Cl (relative stereo) [F83, trans-2-Chloro-5-(2,2-dichloro-3-(4-(trifluoromethyl)phenyl)cyclopropane-1-carboxamido)-N-(2,6-difluorophenyl)benzamide]
[1]; [6]
  pest or weed control at 50 µg/cm2: 50 to 100%
[2]; [7]
  pest or weed control at 50 µg/cm2: 50 to 100%
[3]
  YFM (Biological Results, rating): A (80-100)

## Cn1nc(NC(=O)c2cc(NC(=O)[C@H]3[C@H](c4cc(Cl)cc(Cl)c4)C3(Cl)Cl)ccc2Cl)c2c(Cl)cccc21 (relative stereo) [F463, 2-Chloro-N-(4-chloro-1-methyl-1H-indazol-3-yl)-5-(trans)-(2,2-dichloro-3-(3,5-dichlorophenyl)cyclopropane-1-carboxamido)benzamide]
[1]; [4]
  pest or weed control at 50 µg/cm2: 50 to 100%
[2]; [5]
  pest or weed control at 50 µg/cm2: 50 to 100%
[3]
  YFM rating: A (80-100)

Source: patent publication US10219516B2, “Molecules having pesticidal utility, and intermediates, compositions, and processes, related thereto” (priority 2015, dated 2019)
